Experimental data as given in article PMC2633036, “Identifying Tumor Cell Growth Inhibitors by Combinatorial Chemistry and Zebrafish Assays” (PLoS ONE, 2009).

Biological target: T1, CDK2 (Homo sapiens, UniProt P24941)
T1 construct: CDK2/GST-Cyclin E kinase complex produced in baculovirus expression system; with Cyclin E (GST-Cyclin E)
Assay: radiometric kinase assay (gamma-32P-ATP, histone H1 substrate) with purified recombinant CDK2/cyclin E
Type: biochemical

Row | IC50 [µM] | SMILES
1 | ~100 | O=c1[nH]c2c(nc3ccccn32)c2ccccc12 [13-1-a]
2 | 1 to 2 | O=c1[nH]c2c(nc3ccccn32)c2cccc(O)c12 [13-1-e]
